Drawing on patent publication US20240174655A1, “INDAZOLE DERIVATIVES AS ANTAGONISTS OF THE MUSCARINIC ACETYLCHOLINE RECEPTOR M4” (Vanderbilt University, priority 2021, published 2024), this text covers remaining activity and IC50 for 16 compounds.

For the test, the target named is T1, Human M4 (Homo sapiens, UniProt P08173).
T1 construct: expressed in transfected cells; host or cells: CHO-K1 (Chinese hamster ovary, ATCC), stably expressing M4 and Gqi5
T1 sequence (P08173 1-479): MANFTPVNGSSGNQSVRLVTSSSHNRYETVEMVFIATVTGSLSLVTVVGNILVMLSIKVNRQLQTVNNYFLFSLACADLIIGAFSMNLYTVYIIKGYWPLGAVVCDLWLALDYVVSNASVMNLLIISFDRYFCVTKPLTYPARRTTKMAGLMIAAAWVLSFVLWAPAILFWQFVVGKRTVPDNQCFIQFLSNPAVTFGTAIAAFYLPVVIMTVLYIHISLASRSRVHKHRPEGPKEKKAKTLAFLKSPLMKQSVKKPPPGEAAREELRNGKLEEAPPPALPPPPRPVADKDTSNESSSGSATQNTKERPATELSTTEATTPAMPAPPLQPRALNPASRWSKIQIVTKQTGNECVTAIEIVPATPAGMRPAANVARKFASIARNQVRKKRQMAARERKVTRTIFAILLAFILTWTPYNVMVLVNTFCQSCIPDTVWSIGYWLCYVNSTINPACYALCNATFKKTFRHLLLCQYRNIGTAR
The experiment in a line: mAChR M4 cell-based functional assay (calcium flux, EC80 acetylcholine response). As to conditions: M4/Gqi5/CHO-K1 cells; for remaining activity at 30 µM: % ACh maximum at 30 μM, read-out: Human M4 Emin (% ACh maximum at 30 μM); for IC50: decrease of the response to an EC80 concentration of acetylcholine, read-out: Human M4 IC50. As to the method: Human or rat M4 cDNA, along with the chimeric G protein Gqi5, were transfected into Chinese hamster ovary (CHO-K1) cells purchased from the American Type Culture Collection using Lipofectamine2000. M4/Gqi5/CHO cells were grown in Ham's F-12 medium containing […] heat-inactivated fetal bovine serum (FBS), 20 mM HEPES, 500 μg/mL G418 sulfate, and 200 μg/mL Hygromycin B.
For high throughput measurement of agonist-evoked increases in intracellular calcium, CHO-K1 cells stably expressing muscarinic receptors were plated in growth medium lacking G418 and hygromycin at 15,000 cells/20 μL/well in Greiner 384-well black-walled, tissue culture (TC)-treated, clear-bottom plates (VWR). Cells were incubated overnight at 37° C. and 500 CO2. […] Compound master plates were formatted in a 10 point concentration-response curve (CRC) format (1:3 dilutions) in 100% DMSO with a starting concentration of 10 or 1 mM using a BRAVO liquid handler (Agilent). Test compound CRCs were then transferred to daughter plates (240 nL) using the Echo acoustic plate reformatter (Labcyte, Sunnyvale, CA) and then diluted into assay buffer (40 μL) to a 2× stock using a Thermo Fisher Combi (Thermo Fisher Scientific, Waltham, MA).
Calcium flux was measured using the Functional Drug Screening System (FDSS) 6000 or 7000 (Hamamatsu Corporation, Tokyo, Japan) as an increase in the fluorescent static ratio. Compounds were applied to cells (20 μL, 2×) using the automated system of the FDSS at 2 seconds into the protocol and the data were collected at 1 Hz. […] Agonist activity was analyzed as a concentration-dependent increase in calcium mobilization upon compound addition. Positive allosteric modulator activity was analyzed as a concentration-dependent increase in the EC20 acetylcholine response. Antagonist activity was analyzed as a concentration-dependent decrease in the EC80 acetylcholine response; for the purposes of the tables herein, an IC50 (inhibitory concentration 50) was calculated as a concentration-dependent decrease of the response elicited by an EC80 concentration of acetylcholine. Concentration-response curves were generated using a four-parameter logistical equation in XLFit curve fitting software (IDBS, Bridgewater, NJ) for Excel (Microsoft, Redmond, WA) or Prism (GraphPad Software, Inc., San Diego, CA) or the Dotmatics software platform (Dotmatics, Bishop's Stortford, UK).
Compounds were synthesized as described above.
Background: A change in cytosolic calcium serves as a functional read-out for many receptors and channels.

For `Cc1cc2nn(C)cc2cc1-c1ccc(N[C@H]2C[C@@H]3CN(CC4CCOCC4)C[C@@H]3C2)nn1` [compound 1, (3aR,5s,6aS)-N-(6-(2,6-dimethyl-2H-indazol-5-yl)pyridazin-3-yl)-2-((tetrahydro-2H-pyran-4-yl)methyl)octahydrocyclopenta[c]pyrrol-5-amine], the remaining activity at 30 µM turned out to be 3% and the IC50 (usually the concentration needed to halve the response being measured) turned out to be 2.7 nM.

For the compound `Cc1c(-c2ccc(N[C@H]3C[C@@H]4CN(CC5CCOCC5)C[C@@H]4C3)nn2)ccc2nn(C)cc12` [compound 2, (3aR,5s,6aS)-N-(6-(2,4-dimethyl-2H-indazol-5-yl)pyridazin-3-yl)-2-((tetrahydro-2H-pyran-4-yl)methyl)octahydrocyclopenta[c]pyrrol-5-amine], the remaining activity at 30 µM turned out to be 4% and the IC50 turned out to be 0.41 nM.

As to `[2H][C@@]1(Nc2ccc(-c3ccc4nn(C)cc4c3C)nn2)C[C@H]2CN(CC3CCOCC3)C[C@H]2C1` [compound 3, (3aR,5s,6aS)-N-(6-(2,4-dimethyl-2H-indazol-5-yl)pyridazin-3-yl)-2-((tetrahydro-2H-pyran-4-yl)methyl)octahydrocyclopenta[c]pyrrol-5-d-5-amine], the remaining activity at 30 µM is 2% and the IC50 was determined as 0.33 nM.

On to `Cc1c(-c2ccc(N[C@H]3C[C@@H]4CN(Cc5ccccn5)C[C@@H]4C3)nn2)ccc2nn(C)cc12` [compound 4, (3aR,5s,6aS)-N-(6-(2,4-dimethyl-2H-indazol-5-yl)pyridazin-3-yl)-2-(pyridin-2-ylmethyl)octahydrocyclopenta[c]pyrrol-5-amine], for which the remaining activity at 30 µM came out at 3% and the IC50 stood at 2.2 nM.

With `[2H]C([2H])([2H])N(c1cc(C(F)(F)F)c(-c2ccc3nn(C)cc3c2C)nn1)[C@H]1C[C@@H]2CN(CC3CCOCC3)C[C@@H]2C1` [compound 5, (3aR,5s,6aS)-N-(6-(2,4-dimethyl-2H-indazol-5-yl)-5-(trifluoromethyl)pyridazin-3-yl)-N-(methyl-d3)-2-((tetrahydro-2H-pyran-4-yl)methyl)octahydrocyclopenta[c]pyrrol-5-amine], the remaining activity at 30 µM turned out to be 3% and the IC50 was determined as 130 nM.

`[2H]C([2H])(C1CCOCC1)N1C[C@H]2C[C@H](Nc3ccc(-c4ccc5nn(C)cc5c4C)nn3)C[C@H]2C1` [compound 6, (3aR,5s,6aS)-N-(6-(2,4-dimethyl-2H-indazol-5-yl)pyridazin-3-yl)-2-((tetrahydro-2H-pyran-4-yl)methyl-d2)octahydrocyclopenta[c]pyrrol-5-amine]: the remaining activity at 30 µM amounted to 3% and the IC50 stood at 0.59 nM.

Take `Cn1cc2c(C(F)(F)F)c(-c3ccc(N[C@H]4C[C@@H]5CN(CC6CCOCC6)C[C@@H]5C4)nn3)ccc2n1` [compound 7, (3aR,5s,6aS)-N-(6-(2-methyl-4-(trifluoromethyl)-2H-indazol-5-yl)pyridazin-3-yl)-2-((tetrahydro-2H-pyran-4-yl)methyl)octahydrocyclopenta[c]pyrrol-5-amine]: the remaining activity at 30 µM is 3% and the IC50 turned out to be 1.5 nM.

On to `[2H]C([2H])(C1CCOCC1)N1C[C@H]2C[C@H](Nc3ccc(-c4ccc5nn(C)cc5c4C(F)(F)F)nn3)C[C@H]2C1` [compound 8, (3aR,5s,6aS)-N-(6-(2-methyl-4-(trifluoromethyl)-2H-indazol-5-yl)-pyridazin-3-yl)-2-((tetrahydro-2H-pyran-4-yl)methyl-d2)octahydrocyclopenta[c]pyrrol-5-amine], for which the remaining activity at 30 µM amounted to 10% and the IC50 stood at 1.1 nM.

As for `[2H]C([2H])(C1CCOCC1)N1C[C@H]2C[C@H](Nc3ccc(-c4ccc5nn(C([2H])([2H])[2H])cc5c4C)nn3)C[C@H]2C1` [compound 9, (3aR,5s,6aS)-N-(6-(4-methyl-2-(methyl-d3)-2H-indazol-5-yl)pyridazin-3-yl)-2-((tetrahydro-2H-pyran-4-yl)methyl-d2)octahydrocyclopenta[c]pyrrol-5-amine], the remaining activity at 30 µM was 3% and the IC50 was 0.37 nM.

For the compound `[2H]C([2H])(C1CCOCC1)N1C[C@H]2C[C@H](Nc3ccc(-c4ccc5nn(C(F)F)cc5c4C)nn3)C[C@H]2C1` [compound 10, (3aR,5s,6aS)-N-(6-(2-(difluoromethyl)-4-methyl-2H-indazol-5-yl)pyridazin-3-yl)-2-((tetrahydro-2H-pyran-4-yl)methyl-d2)octahydrocyclopenta[c]pyrrol-5-amine], the remaining activity at 30 µM amounted to 2% and the IC50 is 0.36 nM.

Take `[2H]C([2H])([C@H]1CCCCO1)N1C[C@H]2C[C@H](Nc3ccc(-c4ccc5nn(C)cc5c4C)nn3)C[C@H]2C1` [compound 11, (3aR,5s,6aS)-N-(6-(2,4-dimethyl-2H-indazol-5-yl)pyridazin-3-yl)-2-(((R)-tetrahydro-2H-pyran-2-yl)-methyl-d2)octahydrocyclopenta[c]pyrrol-5-amine]: the remaining activity at 30 µM worked out at 2% and the IC50 amounted to 0.41 nM.

Take `[2H]C([2H])([C@@H]1CCCCO1)N1C[C@H]2C[C@H](Nc3ccc(-c4ccc5nn(C)cc5c4C)nn3)C[C@H]2C1` [compound 12, (3aR,5s,6aS)-N-(6-(2,4-dimethyl-2H-indazol-5-yl)pyridazin-3-yl)-2-(((S)-tetrahydro-2H-pyran-2-yl)methyl-d2)octahydrocyclopenta[c]pyrrol-5-amine]: the remaining activity at 30 µM is 2% and the IC50 worked out at 0.36 nM.

On to `[2H]C([2H])([C@@H]1CCCOC1)N1C[C@H]2C[C@H](Nc3ccc(-c4ccc5nn(C)cc5c4C)nn3)C[C@H]2C1` [compound 13, (3aR,5s,6aS)-N-(6-(2,4-dimethyl-2H-indazol-5-yl)pyridazin-3-yl)-2-(((S)-tetrahydro-2H-pyran-3-yl)methyl-d2)octahydrocyclopenta[c]pyrrol-5-amine], for which the remaining activity at 30 µM amounted to 4% and the IC50 worked out at 0.49 nM.

For the compound `[2H]C([2H])([C@H]1CCCOC1)N1C[C@H]2C[C@H](Nc3ccc(-c4ccc5nn(C)cc5c4C)nn3)C[C@H]2C1` [compound 14, (3aR,5s,6aS)-N-(6-(2,4-dimethyl-2H-indazol-5-yl)pyridazin-3-yl)-2-(((R)-tetrahydro-2H-pyran-3-yl)methyl-d2)octahydrocyclopenta-[c]pyrrol-5-amine], the remaining activity at 30 µM amounted to 3% and the IC50 is 0.79 nM.

Consider `[2H]C([2H])([C@H]1COCCO1)N1C[C@H]2C[C@H](Nc3ccc(-c4ccc5nn(C)cc5c4C)nn3)C[C@H]2C1` [compound 15, (3aR,5s,6aS)-2-(((S)-1,4-dioxan-2-yl)-methyl-d2)-N-(6-(2,4-dimethyl-2H-indazol-5-yl)-pyridazin-3-yl)octahydrocyclopenta[c]pyrrol-5-amine], for which the remaining activity at 30 µM was 3% and the IC50 turned out to be 0.42 nM.

Take `[2H]C([2H])([C@@H]1COCCO1)N1C[C@H]2C[C@H](Nc3ccc(-c4ccc5nn(C)cc5c4C)nn3)C[C@H]2C1` [compound 16, (3aR,5s,6aS)-2-(((R)-1,4-dioxan-2-yl)-methyl-d2)-N-(6-(2,4-dimethyl-2H-indazol-5-yl)pyridazin-3-yl)octahydrocyclopenta[c]pyrrol-5-amine]: the remaining activity at 30 µM worked out at 3% and the IC50 was found to be 8.9 nM.
